The NIST ThermoML archive (doi:10.1016/j.jct.2015.06.010)
Numbers after ± are expanded uncertainties.

Conditions: 101.33 kPa, Liquid; for electrical conductivity: Alternating current cell with electrodes; for viscosity: Concentric cylinders viscometry; for mass density: Vibrating tube method

SMILES: Cn1cc[n+](CC#N)c1.O=S(=O)([N-]S(=O)(=O)C(F)(F)F)C(F)(F)F
- electrical conductivity (283.15 K): 0.0283 ± 0.0006 S/m
- viscosity (283.15 K): 1140 ± 50 mPa·s
- mass density (283.15 K): 1625.9 ± 1.2 kg/m3
- electrical conductivity (288.15 K): 0.0439 ± 0.001 S/m
- viscosity (288.15 K): 708.6 ± 28 mPa·s
- mass density (288.15 K): 1620.5 ± 1.2 kg/m3
- electrical conductivity (293.15 K): 0.0648 ± 0.0014 S/m
- viscosity (293.15 K): 463.4 ± 16 mPa·s
- mass density (293.15 K): 1615 ± 1.2 kg/m3
- electrical conductivity (298.15 K): 0.0919 ± 0.0019 S/m
- viscosity (298.15 K): 315.5 ± 10 mPa·s
- mass density (298.15 K): 1609.7 ± 1.2 kg/m3
- electrical conductivity (303.15 K): 0.129 ± 0.0027 S/m
- viscosity (303.15 K): 222.8 ± 6.4 mPa·s
- mass density (303.15 K): 1604.6 ± 1.2 kg/m3
- electrical conductivity (308.15 K): 0.173 ± 0.0036 S/m
- viscosity (308.15 K): 162.4 ± 4.2 mPa·s
- mass density (308.15 K): 1599.6 ± 1.2 kg/m3
- electrical conductivity (313.15 K): 0.225 ± 0.005 S/m
- viscosity (313.15 K): 121.7 ± 2.9 mPa·s
- mass density (313.15 K): 1594.6 ± 1.2 kg/m3
- electrical conductivity (318.15 K): 0.285 ± 0.006 S/m
- viscosity (318.15 K): 93.56 ± 2.1 mPa·s
- mass density (318.15 K): 1589.8 ± 1.2 kg/m3
- electrical conductivity (323.15 K): 0.36 ± 0.007 S/m
- viscosity (323.15 K): 73.61 ± 1.6 mPa·s
- mass density (323.15 K): 1584.8 ± 1.2 kg/m3
- electrical conductivity (328.15 K): 0.441 ± 0.009 S/m
- viscosity (328.15 K): 58.99 ± 1.2 mPa·s
- mass density (328.15 K): 1579.9 ± 1.2 kg/m3
- electrical conductivity (333.15 K): 0.536 ± 0.011 S/m
- viscosity (333.15 K): 47.93 ± 1 mPa·s
- mass density (333.15 K): 1575.1 ± 1.2 kg/m3
- electrical conductivity (338.15 K): 0.644 ± 0.013 S/m
- viscosity (338.15 K): 39.7 ± 0.84 mPa·s
- mass density (338.15 K): 1570.2 ± 1.2 kg/m3
- electrical conductivity (343.15 K): 0.756 ± 0.015 S/m
- viscosity (343.15 K): 33.27 ± 0.7 mPa·s
- mass density (343.15 K): 1565.4 ± 1.2 kg/m3
- electrical conductivity (348.15 K): 0.878 ± 0.018 S/m
- viscosity (348.15 K): 28.11 ± 0.59 mPa·s
- mass density (348.15 K): 1560.6 ± 1.2 kg/m3
- electrical conductivity (353.15 K): 1.01 ± 0.02 S/m
- viscosity (353.15 K): 24.06 ± 0.51 mPa·s
- mass density (353.15 K): 1555.8 ± 1.2 kg/m3

SMILES: Cn1cc[n+](CCO)c1.O=S(=O)([N-]S(=O)(=O)C(F)(F)F)C(F)(F)F
- electrical conductivity (283.15 K): 0.132 ± 0.0028 S/m
- viscosity (283.15 K): 213.4 ± 6 mPa·s
- mass density (283.15 K): 1588.6 ± 1.2 kg/m3
- electrical conductivity (288.15 K): 0.179 ± 0.0037 S/m
- viscosity (288.15 K): 153.7 ± 3.9 mPa·s
- mass density (288.15 K): 1583.6 ± 1.2 kg/m3
- electrical conductivity (293.15 K): 0.237 ± 0.005 S/m
- viscosity (293.15 K): 114.1 ± 2.7 mPa·s
- mass density (293.15 K): 1578.6 ± 1.2 kg/m3
- electrical conductivity (298.15 K): 0.305 ± 0.006 S/m
- viscosity (298.15 K): 86.89 ± 1.9 mPa·s
- mass density (298.15 K): 1573.7 ± 1.2 kg/m3
- electrical conductivity (303.15 K): 0.387 ± 0.008 S/m
- viscosity (303.15 K): 67.66 ± 1.5 mPa·s
- mass density (303.15 K): 1568.8 ± 1.2 kg/m3
- electrical conductivity (308.15 K): 0.481 ± 0.01 S/m
- viscosity (308.15 K): 53.88 ± 1.1 mPa·s
- mass density (308.15 K): 1563.9 ± 1.2 kg/m3
- electrical conductivity (313.15 K): 0.589 ± 0.012 S/m
- viscosity (313.15 K): 43.52 ± 0.92 mPa·s
- mass density (313.15 K): 1559.1 ± 1.2 kg/m3
- electrical conductivity (318.15 K): 0.704 ± 0.014 S/m
- viscosity (318.15 K): 35.85 ± 0.76 mPa·s
- mass density (318.15 K): 1554.2 ± 1.2 kg/m3
- electrical conductivity (323.15 K): 0.83 ± 0.017 S/m
- viscosity (323.15 K): 29.83 ± 0.63 mPa·s
- mass density (323.15 K): 1549.4 ± 1.2 kg/m3
- electrical conductivity (328.15 K): 0.967 ± 0.02 S/m
- viscosity (328.15 K): 25.2 ± 0.53 mPa·s
- mass density (328.15 K): 1544.6 ± 1.2 kg/m3
- electrical conductivity (333.15 K): 1.11 ± 0.022 S/m
- viscosity (333.15 K): 21.52 ± 0.45 mPa·s
- mass density (333.15 K): 1539.8 ± 1.2 kg/m3
- electrical conductivity (338.15 K): 1.28 ± 0.026 S/m
- viscosity (338.15 K): 18.46 ± 0.39 mPa·s
- mass density (338.15 K): 1535 ± 1.2 kg/m3
- electrical conductivity (343.15 K): 1.45 ± 0.029 S/m
- viscosity (343.15 K): 16.08 ± 0.34 mPa·s
- mass density (343.15 K): 1530.2 ± 1.2 kg/m3
- electrical conductivity (348.15 K): 1.63 ± 0.033 S/m
- viscosity (348.15 K): 14.06 ± 0.3 mPa·s
- mass density (348.15 K): 1525.5 ± 1.2 kg/m3
- electrical conductivity (353.15 K): 1.81 ± 0.037 S/m
- viscosity (353.15 K): 12.44 ± 0.26 mPa·s
- mass density (353.15 K): 1520.7 ± 1.2 kg/m3
